Reference: patent US11091478B2 (Fochon Pharmaceuticals, Ltd., priority 2017, dated 2021)

What was measured:
RS4;11 cells = experiment: Cell proliferation assay (MTS), RS4;11 cells, 72 h; type: cell-based; settings: Homo sapiens, RS4-11, 72 h
Excerpt: Cell Proliferation Assays
MTS testing kit was purchased from Promega. The RPMI-1640, Fetal bovine serum and Penicillin-Streptomycin were purchased from Gibco. Dimethyl sulfoxide (DMSO) was purchased from Sigma.
To investigate whether a compound is able to inhibit the activity of BCL-2 in cells, a mechanism-based assay using DOHH2 (DSMZ No.® ACC 47) and RS4;11 (ATCC® CRL-1873™) cell was developed. In this assay, inhibition of Bcl-2 was detected by the inhibition of DOHH2 cells proliferation. DOHH2 cells were cultured in culture flasks to 40-80% confluence in RPMI-1640 plus 10% fetal bovine serum. Cells were collected and plated onto 96-well plates at desired cell density (5000 cells/well). Plates were incubated overnight at 37° C., with 5% CO2 to adhere. Compounds were added to the plates, and the final compound concentrations were 10000, 3333, 1111, […], 124, 41, 14, 4.6 and 1.5 nM. Plates plated with DOHH2 or RS4;11 cells were placed at 37° C., with 5% CO2 for 120 h (DOHH2) or 72 h (RS4;11) respectively. 20 μl MTS/100 μl medium mixture solution were added to each well and incubate the plates for exactly 2 hours. The reaction was stopped by adding 25 μl 10% SDS per well. Measure absorbance at 490 nm and 650 nm (reference wavelength). IC50 was calculated using GraphPad Prism 5.0.
Select compounds prepared as described above were assayed according to the biological procedures described herein.

DOHH2 cells = experiment: Cell proliferation assay (MTS), DOHH2 cells, 120 h; type: cell-based; settings: Homo sapiens, DOHH-2, 120 h
Method in brief: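 Treatment lasts 72 h for RS4;11 and 120 h for DOHH2 cells seeded at 5000 per well in serum-containing RPMI-1640. A 2 h MTS step, halted with 10% SDS, precedes dual-wavelength absorbance reading and IC50 fitting.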

## CC1(C)CCC(CN2CCN(c3ccc(C(=O)NS(=O)(=O)c4cc5c(c([N+](=O)[O-])c4)N[C@@H](CCO)C5)c(Oc4cnc5[nH]ccc5c4)c3)CC2)=C(c2ccc(Cl)cc2)C1 [Example 1-19, (R)-2-((1H-pyrrolo[2,3-b]pyridin-5-yl)oxy)-4-(4-((4′-chloro-5,5-dimethyl-3,4,5,6-tetra-hydro-[1,1′-biphenyl]-2-yl)methyl)piperazin-1-yl)-N-((2-(2-hydroxyethyl)-7-nitro-indolin-5-yl)sulfonyl)benzamide]
RS4;11 cells
  IC50: 93 nM
DOHH2 cells
  IC50: 96 nM

## CC1(C)CCC(CN2CCN(c3ccc(C(=O)NS(=O)(=O)c4cc([N+](=O)[O-])c5[nH]c(CN6CCOCC6)cc5c4)c(Oc4cnc5[nH]ccc5c4)c3)CC2)=C(c2ccc(Cl)cc2)C1 [Example 1-21, 2-((1H-pyrrolo[2,3-b]pyridin-5-yl)oxy)-4-(4-((4′-chloro-5,5-dimethyl-3,4,5,6-tetra-hydro-[1,1′-biphenyl]-2-yl)methyl)piperazin-1-yl)-N-((2-(morpholino-methyl)-7-nitro-1H-indol-5-yl)sulfonyl)benzamide]
RS4;11 cells
  IC50: 1 nM
DOHH2 cells
  IC50: 12 nM

## COC(=O)C[C@@H]1Cc2cc(S(=O)(=O)NC(=O)c3ccc(N4CCN(CC5=C(c6ccc(Cl)cc6)CC(C)(C)CC5)CC4)cc3Oc3cnc4[nH]ccc4c3)cc([N+](=O)[O-])c2N1 [Example 1-22, methyl (S)-2-(5-(N-(2-((1H-pyrrolo[2,3-b]pyridin-5-yl)oxy)-4-(4-((4′-chloro-5,5-dimethyl-3,4,5,6-tetrahydro-[1,1′-biphenyl]-2-yl)methyl)piperazin-1-yl)benzoyl)sulfamoyl)-7-nitro-indolin-2-yl)acetate]
RS4;11 cells
  IC50: 47 nM
DOHH2 cells
  IC50: 175 nM

## CN(C)C(=O)C[C@@H]1Cc2cc(S(=O)(=O)NC(=O)c3ccc(N4CCN(CC5=C(c6ccc(Cl)cc6)CC(C)(C)CC5)CC4)cc3Oc3cnc4[nH]ccc4c3)cc([N+](=O)[O-])c2N1 [Example 1-23, (S)-2-((1H-pyrrolo[2,3-b]pyridin-5-yl)oxy)-4-(4-((4′-chloro-5,5-dimethyl-3,4,5,6-tetra-hydro-[1,1′-biphenyl]-2-yl)methyl)piperazin-1-yl)-N-((2-(2-(dimethylamino)-2-oxoeth-yl)-7-nitroindolin-5-yl)sulfonyl)benzamide]
RS4;11 cells
  IC50: 20 nM
DOHH2 cells
  IC50: 57 nM

## CC1(C)CCC(CN2CCN(c3ccc(C(=O)NS(=O)(=O)c4cc5c(c([N+](=O)[O-])c4)N[C@H](CC(=O)N4CCOCC4)C5)c(Oc4cnc5[nH]ccc5c4)c3)CC2)=C(c2ccc(Cl)cc2)C1 [Example 1-24, (S)-2-((1H-pyrrolo[2,3-b]pyridin-5-yl)oxy)-4-(4-((4′-chloro-5,5-dimethyl-3,4,5,6-tetra-hydro-[1,1′-biphenyl]-2-yl)methyl)piperazin-1-yl)-N-((2-(2-morpholino-2-oxoethyl)-7-nitroindolin-5-yl)sulfonyl)benzamide]
RS4;11 cells
  IC50: 73 nM
DOHH2 cells
  IC50: 41 nM

## CN1CCN(C(=O)C[C@H]2Cc3cc(S(=O)(=O)NC(=O)c4ccc(N5CCN(CC6=C(c7ccc(Cl)cc7)CC(C)(C)CC6)CC5)cc4Oc4cnc5[nH]ccc5c4)cc([N+](=O)[O-])c3N2)CC1 [Example 1-25]
RS4;11 cells
  IC50: 6 nM
DOHH2 cells
  IC50: 6 nM

## CC1(C)CCC(CN2CCN(c3ccc(C(=O)NS(=O)(=O)c4cc5c(c([N+](=O)[O-])c4)N[C@@H](CC(=O)N4CCOCC4)C5)c(Oc4cnc5[nH]ccc5c4)c3)CC2)=C(c2ccc(Cl)cc2)C1 [Example 1-26, (R)-2-((1H-pyrrolo[2,3-b]pyridin-5-yl)oxy)-4-(4-((4′-chloro-5,5-dimethyl-3,4,5,6-tetra-hydro-[1,1′-biphenyl]-2-yl)methyl)piperazin-1-yl)-N-((2-(2-morpholino-2-oxoethyl)-7-nitroindolin-5-yl)sulfonyl)benzamide]
RS4;11 cells
  IC50: 12 nM
DOHH2 cells
  IC50: 102 nM

## CN1CCN(C[C@H]2COc3cc(S(=O)(=O)NC(=O)c4ccc(N5CCN(CC6=C(c7ccc(Cl)cc7)CC(C)(C)CC6)CC5)cc4Oc4cnc5[nH]ccc5c4)cc([N+](=O)[O-])c3N2)CC1 [Example 2-1, (S)-2-((1H-pyrrolo[2,3-b]pyridin-5-yl)oxy)-4-(4-((4′-chloro-5,5-dimethyl-3,4,5,6-tetrahydro-[1,1′-biphenyl]-2-yl)methyl)piperazin-1-yl)-N-((3-((4-methylpiperazin-1-yl)methyl)-5-nitro-3,4-dihydro-2H-benzo[b][1,4]oxazin-7-yl)sulfonyl)benzamide]
RS4;11 cells
  IC50: 1 nM
DOHH2 cells
  IC50: 6 nM

## CC1(C)CCC(CN2CCN(c3ccc(C(=O)NS(=O)(=O)c4cc5c(c([N+](=O)[O-])c4)N[C@H](CCN4CCOCC4)CO5)c(Oc4cnc5[nH]ccc5c4)c3)CC2)=C(c2ccc(Cl)cc2)C1 [Example 2-2]
RS4;11 cells
  IC50: 2 nM
DOHH2 cells
  IC50: 8 nM

## CC1(C)CCC(CN2CCN(c3ccc(C(=O)NS(=O)(=O)c4cc5c(c([N+](=O)[O-])c4)N[C@H](CN4CCOCC4)CO5)c(Oc4cnc5[nH]ccc5c4)c3)CC2)=C(c2ccc(Cl)cc2)C1 [Example 2-5, (R)-2-((1H-pyrrolo[2,3-b]pyridin-5-yl)oxy)-4-(4-((4′-chloro-5,5-dimethyl-3,4,5,6-tetra-hydro-[1,1′-biphenyl]-2-yl)methyl)piperazin-1-yl)-N-((3-(morpholinomethyl)-5-nitro-3,4-dihydro-2H-benzo[b][1,4]oxazin-7-yl)sulfonyl)benzamide]
RS4;11 cells
  IC50: 3 nM
DOHH2 cells
  IC50: 12 nM

## CC1(C)CCC(CN2CCN(c3ccc(C(=O)NS(=O)(=O)c4cc5c(c([N+](=O)[O-])c4)N[C@H](CN4CCC(C)(O)CC4)CO5)c(Oc4cnc5[nH]ccc5c4)c3)CC2)=C(c2ccc(Cl)cc2)C1 [Example 2-6, (R)-2-((1H-pyrrolo[2,3-b]pyridin-5-yl)oxy)-4-(4-((4′-chloro-5,5-dimethyl-3,4,5,6-tetra-hydro-[1,1′-biphenyl]-2-yl)methyl)piperazin-1-yl)-N-((3-((4-hydroxy-4-methylpiperdin-1-yl)methyl)-5-nitro-3,4-dihydro-2H-benzo[b][1,4]oxazin-7-yl)sulfonyl)benzamide]
RS4;11 cells
  IC50: 2 nM
DOHH2 cells
  IC50: 18 nM

## CN(C)C[C@@H]1COc2cc(S(=O)(=O)NC(=O)c3ccc(N4CCN(CC5=C(c6ccc(Cl)cc6)CC(C)(C)CC5)CC4)cc3Oc3cnc4[nH]ccc4c3)cc([N+](=O)[O-])c2N1 [Example 2-7, (R)-2-((1H-pyrrolo[2,3-b]pyridin-5-yl)oxy)-4-(4-((4′-chloro-5,5-dimethyl-3,4,5,6-tetra-hydro-[1,1′-biphenyl]-2-yl)methyl)piperazin-1-yl)-N-((3-((dimethylamino)methyl)-5-nitro-3,4-dihydro-2H-benzo[b][1,4]oxazin-7-yl)sulfonyl)benzamide]
RS4;11 cells
  IC50: 72 nM
DOHH2 cells
  IC50: 95 nM

## CC1(C)CCC(CN2CCN(c3ccc(C(=O)NS(=O)(=O)c4cc5c(c([N+](=O)[O-])c4)N[C@H](CO)CO5)c(Oc4cnc5[nH]ccc5c4)c3)CC2)=C(c2ccc(Cl)cc2)C1 [Example 2-8, (R)-2-((1H-pyrrolo[2,3-b]pyridin-5-yl)oxy)-4-(4-((4′-chloro-5,5-dimethyl-3,4,5,6-tetra-hydro-[1,1′-biphenyl]-2-yl)methyl)piperazin-1-yl)-N-((3-(hydroxymethyl)-5-nitro-3,4-dihydro-2H-benzo[b][1,4]oxazin-7-yl)sulfonyl)benzamide]
RS4;11 cells
  IC50: 14 nM
DOHH2 cells
  IC50: 67 nM
